How the values were obtained:
[1] = tested on: normal bone marrow cells; test: Normal bone marrow colony assay; type: cell-based, human
Procedure: Normal human bone marrow was also analyzed in a colony assay: 24-well plates seeded with 200 cells/well in MethoCult™ H4434 Classic (methylcellulose-based medium with recombinant cytokines for human cells) ([…] Technologies™ INC., Vancouver, British Columbia, Canada). The plates contained targeted JOSD1 inhibitors at the indicated concentrations. Plates were incubated at 37° C. in 5% CO2 for >1 week, and then myeloid and erythroid colonies (early progenitors with erythroid and myeloid components: colony-forming unit for granulocytes and macrophages (CFU-GM), CFU-erythroid (E), BFU-E, and CFU-granulocyte, erythroid, macrophage, megakaryocyte (GEMM) were counted on an inverted microscope.

[2] = target: USP30 (Homo sapiens (Human), UniProt Q70CQ3); test: USP30 biochemical IC50
[3] = tested on: JAK2-V617F; test: JAK2 protein level by western blotting in Ba/F3-EPOR-JAK2-V617F cells; type: cell-based
Procedure: Immunoblotting and Immunoprecipitation. Protein lysate preparation, immunoblotting, and immunoprecipitation were carried out as previously described (Lamberto, et al., 2017 Cell Chem Biol., 224(12):1490-500 e11). Briefly, 0.7×10^6 cells were treated with compounds 1 and 2 at 0, 5, 10, […], cells were collected, and lysate was prepared in radioimmunoprecipitation assay (RIPA) buffer, JAK family and downstream signaling protein levels were detected by western blotting with the indicated antibodies. For immunoprecipitation, 1 mg protein for each sample was prepared and 1 μg antibody was used, immunoglobulin G (IgG) was added in same amount as nontargeting control.
A broader range of compounds 1 and 2, including concentrations lower than 1 μM, were also tested on growth of EPOR-JAK2-V617F-expressing Ba/F3 cells and parental Ba/F3 EpoR+ cells (24 hours treatment on 4000 cells per well) (FIG. 18-FIG. 18B). Cell growth inhibition (FIG. 17A-FIG. 17B, FIG. 18A-FIG. 18B) was tested on Ba/F3-EPOR-JAK2-V617F (-IL-3/WEHI) and parental Ba/F3-EPOR cells (+IL-3/WEHI) plated at 2000 cells per well, at 1, 3 and 10 μM for 24 hours using the Promega CellTiter Glo® assay.

[4] = target: wt JAK2 (Mus musculus (Mouse), UniProt Q62120); test: JAK2 protein level by western blotting in Ba/F3-EPOR-JAK2 wt cells; type: cell-based
Procedure: Immunoblotting and Immunoprecipitation. Protein lysate preparation, immunoblotting, and immunoprecipitation were carried out as previously described (Lamberto, et al., 2017 Cell Chem Biol., 224(12):1490-500 e11). Briefly, 0.7×10^6 cells were treated with compounds 1 and 2 at 0, 5, 10, and 20 μM for 16 or 24 hours, cells were collected, and lysate was prepared in radioimmunoprecipitation assay (RIPA) buffer, JAK family and downstream signaling protein levels were detected by western blotting with the indicated antibodies. For immunoprecipitation, 1 mg protein for each sample was prepared and 1 μg antibody was used, immunoglobulin G (IgG) was added in same amount as nontargeting control.

[5] = tested on: JAK2-V617F-positive primary AML patient samples; test: AML liquid culture proliferation, primary patient samples; type: cell-based, human
Description: AML liquid culture proliferation and colony assay studies. Frozen vials of bone marrow from AML patients identified as harboring JAK2-V617F were previously Ficoll®-purified to obtain mononuclear cells and thawed prior to use in studies.

Chain of USP30 (Q70CQ3 whole entry, species assumed): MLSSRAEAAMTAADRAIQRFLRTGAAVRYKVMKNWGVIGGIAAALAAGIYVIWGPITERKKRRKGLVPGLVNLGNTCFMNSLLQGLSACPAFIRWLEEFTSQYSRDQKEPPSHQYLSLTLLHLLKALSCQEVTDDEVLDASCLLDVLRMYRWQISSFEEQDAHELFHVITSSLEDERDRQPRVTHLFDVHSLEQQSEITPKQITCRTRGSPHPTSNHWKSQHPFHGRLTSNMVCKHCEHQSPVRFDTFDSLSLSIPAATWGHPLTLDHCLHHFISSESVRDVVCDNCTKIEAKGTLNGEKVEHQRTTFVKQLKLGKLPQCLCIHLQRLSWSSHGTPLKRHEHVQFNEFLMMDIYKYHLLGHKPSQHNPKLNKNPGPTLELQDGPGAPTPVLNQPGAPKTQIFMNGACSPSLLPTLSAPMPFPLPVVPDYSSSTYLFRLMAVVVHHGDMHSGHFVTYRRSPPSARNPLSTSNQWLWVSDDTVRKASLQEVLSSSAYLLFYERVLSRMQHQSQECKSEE

Cc1noc(C)c1-c1cccc2nc(NC(=O)[C@H]3CCN(C#N)C3)sc12 [Compound 2, (S)-1-cyano-N-(7-(3,5-dimethylisoxazol-4-yl)benzo[d]thiazol-2-yl)pyrrolidine-3-carboxamide]
normal bone marrow colony formation ([1]; 5 μM or higher): significantly impaired
normal bone marrow colony formation ([1]; concentrations up to 2.5 μM): colonies were able to form
USP30 biochemical IC50 (range in words) [2]: several hundred
JAK2 degradation, independent western blotting ([3]; 18 hours, 10 μM compound 1 or 5 μM compound 2): degradation of JAK2
JAK2-V617F protein level ([3]; Ba/F3-EPOR-JAK2-V617F-expressing cells): decreases in JAK2-V617F protein
JAK2 levels in wt cells [4]: little to no impact on JAK2 levels
potency against JAK2-V617F-positive cells versus normal bone marrow cells ([5]; compound 2: 24 h treatment, ruxolitinib: FIG. 16C): higher potency exhibited against JAK2-V617F-positive cells than normal bone marrow cells
primary cell viability ([5]; starting at concentrations around 1 μM): concentration-dependent decrease in primary cell viability

Reference: patent US20240335427A1, “SMALL MOLECULE INHIBITION OF DEUBIQUITINATING ENZYME JOSEPHIN DOMAIN CONTAINING 1 (JOSD1) AS A TARGETED THERAPY FOR LEUKEMIAS WITH MUTANT JANUS KINASE 2 (JAK2)” (DANA-FARBER CANCER INSTITUTE, INC., priority 2021, published 2024)
